Columns and labels:
BI-2493 [1] = compound: T1, C[C@H]1CNCCN1c1nccc(-c2noc3c2CCC[C@@]32CCCc3sc(N)c(C#N)c32)n1 [BI-2493]; settings: 5 days
Method: (§1)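 PRISM pooled barcoded cancer cell line viability screen (Broad Institute) with BI-2493 at 8 doses in threefold dilutions from 0.00457 to 10 µmol/L, 5-day treatment; curves fitted per cell line. IC50 is undefined (placeholder) for resistant lines. AUC is capped at 1, and sensitivity is reported as 1 − AUC.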

BI-2493 [2] = compound: T1, BI-2493; experiment: 1 - AUC of viability dose-response curve (sensitivity) (fraction); higher = more sensitive; settings: 5 days
Method: as §1

KYSE410_OESOPHAGUS
IC50 of cell viability (BI-2493 [1]): 3.85 µM | 1 - AUC of viability dose-response curve (BI-2493 [2]): 0.15

KYSE510_OESOPHAGUS
IC50 of cell viability (BI-2493 [1]): 5.11 µM | 1 - AUC of viability dose-response curve (BI-2493 [2]): 0.22

KYSE520_OESOPHAGUS
IC50 of cell viability (BI-2493 [1]): 4.02 µM | 1 - AUC of viability dose-response curve (BI-2493 [2]): 0.136

L363_HAEMATOPOIETIC_AND_LYMPHOID_TISSUE
IC50 of cell viability (BI-2493 [1]): 7.78 µM | 1 - AUC of viability dose-response curve (BI-2493 [2]): 0.041

LAMA84_HAEMATOPOIETIC_AND_LYMPHOID_TISSUE
IC50 of cell viability (BI-2493 [1]): 0.76 µM | 1 - AUC of viability dose-response curve (BI-2493 [2]): 0.34

LC1SQSF_LUNG
IC50 of cell viability (BI-2493 [1]): > 10 µM | 1 - AUC of viability dose-response curve (BI-2493 [2]): 0.255

LCLC103H_LUNG
IC50 of cell viability (BI-2493 [1]): 8.64 µM | 1 - AUC of viability dose-response curve (BI-2493 [2]): 0.0229

LI7_LIVER
IC50 of cell viability (BI-2493 [1]): 1.52 µM | 1 - AUC of viability dose-response curve (BI-2493 [2]): 0.213

LMSU_STOMACH
IC50 of cell viability (BI-2493 [1]): 5.54 µM | 1 - AUC of viability dose-response curve (BI-2493 [2]): 0.103

LN18_CENTRAL_NERVOUS_SYSTEM
IC50 of cell viability (BI-2493 [1]): 6.48 µM | 1 - AUC of viability dose-response curve (BI-2493 [2]): 0.0792

LN229_CENTRAL_NERVOUS_SYSTEM
IC50 of cell viability (BI-2493 [1]): 8.48 µM | 1 - AUC of viability dose-response curve (BI-2493 [2]): 0.0706

LN382_CENTRAL_NERVOUS_SYSTEM
IC50 of cell viability (BI-2493 [1]): 8.95 µM | 1 - AUC of viability dose-response curve (BI-2493 [2]): 0.0249

LN464_CENTRAL_NERVOUS_SYSTEM
IC50 of cell viability (BI-2493 [1]): 4.83 µM | 1 - AUC of viability dose-response curve (BI-2493 [2]): 0.0968

LNCAPCLONEFGC_PROSTATE
IC50 of cell viability (BI-2493 [1]): 3.64 µM | 1 - AUC of viability dose-response curve (BI-2493 [2]): 0.152

LNZ308_CENTRAL_NERVOUS_SYSTEM
IC50 of cell viability (BI-2493 [1]): 7.52 µM | 1 - AUC of viability dose-response curve (BI-2493 [2]): 0.142

LOUNH91_LUNG
IC50 of cell viability (BI-2493 [1]): > 10 µM | 1 - AUC of viability dose-response curve (BI-2493 [2]): 0.189

LOVO_LARGE_INTESTINE
IC50 of cell viability (BI-2493 [1]): 1.17 µM | 1 - AUC of viability dose-response curve (BI-2493 [2]): 0.246

LOXIMVI_SKIN
IC50 of cell viability (BI-2493 [1]): 8.63 µM | 1 - AUC of viability dose-response curve (BI-2493 [2]): 0.0241

LPS141_SOFT_TISSUE
IC50 of cell viability (BI-2493 [1]): > 10 µM | 1 - AUC of viability dose-response curve (BI-2493 [2]): 0.0281

LS180_LARGE_INTESTINE
IC50 of cell viability (BI-2493 [1]): 1.08 µM | 1 - AUC of viability dose-response curve (BI-2493 [2]): 0.244

LS513_LARGE_INTESTINE
IC50 of cell viability (BI-2493 [1]): 0.175 µM | 1 - AUC of viability dose-response curve (BI-2493 [2]): 0.494

LS1034_LARGE_INTESTINE
IC50 of cell viability (BI-2493 [1]): 0.575 µM | 1 - AUC of viability dose-response curve (BI-2493 [2]): 0.337

LS_AUTONOMIC_GANGLIA
IC50 of cell viability (BI-2493 [1]): 3.67 µM | 1 - AUC of viability dose-response curve (BI-2493 [2]): 0.125

LU99_LUNG
IC50 of cell viability (BI-2493 [1]): 8.77 µM | 1 - AUC of viability dose-response curve (BI-2493 [2]): 0.0228

LUDLU1_LUNG
IC50 of cell viability (BI-2493 [1]): 4.54 µM | 1 - AUC of viability dose-response curve (BI-2493 [2]): 0.143

LXF289_LUNG
IC50 of cell viability (BI-2493 [1]): 8.04 µM | 1 - AUC of viability dose-response curve (BI-2493 [2]): 0.103

M059K_CENTRAL_NERVOUS_SYSTEM
IC50 of cell viability (BI-2493 [1]): 9.49 µM | 1 - AUC of viability dose-response curve (BI-2493 [2]): 0.00953

MALME3M_SKIN
IC50 of cell viability (BI-2493 [1]): 6.19 µM | 1 - AUC of viability dose-response curve (BI-2493 [2]): 0.0805

MB1_THYROID
IC50 of cell viability (BI-2493 [1]): 5.5 µM | 1 - AUC of viability dose-response curve (BI-2493 [2]): 0.165

MC116_HAEMATOPOIETIC_AND_LYMPHOID_TISSUE
IC50 of cell viability (BI-2493 [1]): 5.28 µM | 1 - AUC of viability dose-response curve (BI-2493 [2]): 0.0718

MCC26_SKIN
IC50 of cell viability (BI-2493 [1]): > 10 µM | 1 - AUC of viability dose-response curve (BI-2493 [2]): 0.0203

MCC142_SKIN
IC50 of cell viability (BI-2493 [1]): 9.48 µM | 1 - AUC of viability dose-response curve (BI-2493 [2]): 0.0347

MCF7_BREAST
IC50 of cell viability (BI-2493 [1]): 8.66 µM | 1 - AUC of viability dose-response curve (BI-2493 [2]): 0.0329

MDAMB175VII_BREAST
IC50 of cell viability (BI-2493 [1]): 8.51 µM | 1 - AUC of viability dose-response curve (BI-2493 [2]): 0.0449

MDAMB231_BREAST
IC50 of cell viability (BI-2493 [1]): 7.4 µM | 1 - AUC of viability dose-response curve (BI-2493 [2]): 0.0666

MDAMB361_BREAST
IC50 of cell viability (BI-2493 [1]): > 10 µM | 1 - AUC of viability dose-response curve (BI-2493 [2]): 0.14

MDAMB435S_SKIN
IC50 of cell viability (BI-2493 [1]): 4.3 µM | 1 - AUC of viability dose-response curve (BI-2493 [2]): 0.0956

From the supplement of paper PMC11962398
